In EP2949653A1, “ISOXAZOLE DERIVATIVES AS LEUKOTRIENE BIOSYNTHESIS INHIBITORS” (Banoglu, Erden, priority 2014, dated 2015):
“And” between values parts separate entries of the source, which are not always exact repeats. Equal entries are not always repeated. Where two headings read alike, the source gives them in different places.

Tests used:
5-LO = target: T1, 5-LO (Homo sapiens, UniProt P09917); test: 5-LO mediated product formation in neutrophil homogenates (reducing conditions); type: biochemical; parameters: endogenous in cells; host or cells: neutrophil homogenates; details: with or without GSH (1 mM), 20 µM AA (Figure 6)
T1 sequence (P09917 1-674): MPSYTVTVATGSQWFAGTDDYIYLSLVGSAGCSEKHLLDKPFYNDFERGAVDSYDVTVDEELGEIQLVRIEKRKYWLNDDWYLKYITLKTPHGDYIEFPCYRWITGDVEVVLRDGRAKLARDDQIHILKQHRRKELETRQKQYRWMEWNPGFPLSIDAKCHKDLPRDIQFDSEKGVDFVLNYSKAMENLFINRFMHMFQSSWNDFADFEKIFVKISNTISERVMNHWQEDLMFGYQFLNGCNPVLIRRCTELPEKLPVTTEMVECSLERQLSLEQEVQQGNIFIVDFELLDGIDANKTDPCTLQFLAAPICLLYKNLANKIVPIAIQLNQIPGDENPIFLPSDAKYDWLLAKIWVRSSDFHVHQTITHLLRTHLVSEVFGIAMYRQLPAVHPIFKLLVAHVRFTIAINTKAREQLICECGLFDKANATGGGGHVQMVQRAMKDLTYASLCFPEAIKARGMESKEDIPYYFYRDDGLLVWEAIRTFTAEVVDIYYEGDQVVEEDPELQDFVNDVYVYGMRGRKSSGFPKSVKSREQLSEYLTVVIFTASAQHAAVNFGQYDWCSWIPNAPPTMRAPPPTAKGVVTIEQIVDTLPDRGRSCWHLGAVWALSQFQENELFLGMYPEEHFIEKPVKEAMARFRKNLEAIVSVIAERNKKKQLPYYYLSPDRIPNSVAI
Description: Cell based and cell-free assays carried out in biological studies, immunofluorescence microscopy analysis and zymosan-induced peritonitis in mice are performed as described hereinabove (Pegola, C. and et al., British J. Pharmacology, 2014, D01:10.1111/bph.12625). In the cell based assays (intact neutrophils or monocytes), 5-LO mediated product formation is started, after pre-incubation with test compounds (or control DMSO) for 15 min. at 37 °C, with addition of Ca-ionophore A23187 (2.5 µM) to the fresh 5 x 10^6 neutrophils or monocytes suspended in 1 ml of PGC buffer (phosphate buffered saline (PBS) solution containing 1 mg ml^-1 glucose and 1mM CaCl2, pH 7.4). After the incubation for 10 min. at 37 °C, the reaction is ended with addition of 1 ml of methanol, and 30 µL 1 N HCl, 200 ng prostaglandin B1 and 500 µL PBS are added to the mixture. […] Resulting 5-LO mediated products are extracted and analysed by the known method of high pressure liquid chromatography (HPLC) (Pergola, C. Proc Natl. Acad. Sci. U.S.A. 2008, 105, 19881). 5-LO mediated product formation (LTB4 and all trans isomers, and 5 (S)-hydro(pero)xy-6-trans-8, 11, 14-cis-eicosatetraenoic acid, 5-H(p)ETE) is expressed as ng per 10^6 cell. Cysteinyl-LTs have not been analyzed because that the amount of C4, D4 and E4 and LTB4 oxidation products are below the detection limit. […]

15-LO = target: T2, 15-LO (Homo sapiens, UniProt P16050); test: 15-LO inhibition in A23187-stimulated neutrophils; type: cell-based; details: up to 10 µM in A23187-stimulated neutrophils
T2 construct: 12-LO or 15-LO, up to 10 µM in A23187-stimulated neutrophils; endogenous in cells; host or cells: A23187-stimulated neutrophils
T2 sequence (P16050 1-662): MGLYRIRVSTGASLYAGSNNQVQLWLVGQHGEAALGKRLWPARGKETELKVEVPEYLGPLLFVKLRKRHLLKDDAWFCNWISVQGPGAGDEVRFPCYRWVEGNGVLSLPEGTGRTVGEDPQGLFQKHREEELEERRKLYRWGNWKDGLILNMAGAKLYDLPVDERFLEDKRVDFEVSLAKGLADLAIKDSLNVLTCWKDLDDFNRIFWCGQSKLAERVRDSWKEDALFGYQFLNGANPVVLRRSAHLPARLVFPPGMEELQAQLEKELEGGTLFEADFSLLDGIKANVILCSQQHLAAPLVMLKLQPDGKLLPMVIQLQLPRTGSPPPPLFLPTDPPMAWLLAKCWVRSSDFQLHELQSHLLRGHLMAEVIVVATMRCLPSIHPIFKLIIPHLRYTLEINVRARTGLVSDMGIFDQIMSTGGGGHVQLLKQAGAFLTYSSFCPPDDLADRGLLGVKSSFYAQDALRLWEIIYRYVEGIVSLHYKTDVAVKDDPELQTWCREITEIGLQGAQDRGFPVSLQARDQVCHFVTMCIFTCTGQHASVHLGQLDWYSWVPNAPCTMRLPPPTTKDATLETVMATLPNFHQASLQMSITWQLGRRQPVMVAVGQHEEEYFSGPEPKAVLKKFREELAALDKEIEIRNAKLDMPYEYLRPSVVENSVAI

purified 5-LO = target: T3, purified 5-LO (Homo sapiens, UniProt P09917); test: Purified / human recombinant 5-LO activity (cell-free); type: biochemical
T3 sequence (P09917 1-674): T1 sequence (P09917 1-674)
Description: Cell based and cell-free assays carried out in biological studies, immunofluorescence microscopy analysis and zymosan-induced peritonitis in mice are performed as described hereinabove (Pegola, C. and et al., British J. Pharmacology, 2014, D01:10.1111/bph.12625). In the cell based assays (intact neutrophils or monocytes), 5-LO mediated product formation is started, after pre-incubation with test compounds (or control DMSO) for 15 min. at 37 °C, with addition of Ca-ionophore A23187 (2.5 µM) to the fresh 5 x 10^6 neutrophils or monocytes suspended in 1 ml of PGC buffer (phosphate buffered saline (PBS) solution containing 1 mg ml^-1 glucose and 1mM CaCl2, pH 7.4). After the incubation for 10 min. at 37 °C, the reaction is ended with addition of 1 ml of methanol, and 30 µL 1 N HCl, 200 ng prostaglandin B1 and 500 µL PBS are added to the mixture. In cell-free assays (isolated 5-LO and cell homogenates), human recombinant 5-LO protein or 40,000g supernatant is added to 1 ml of 5-LO reaction mixture (PBS, pH 7.4, 1 mM EDTA, 1 mM ATP), and then incubated with test compounds (or control DMSO) for 10 min. at 4°C, heated to 37 °C and 2 mM CaCl2 as well as AA at certain concentrations are added. The reaction is ended as described for the cell-based assays. Resulting 5-LO mediated products are extracted and analysed by the known method of high pressure liquid chromatography (HPLC) (Pergola, C. Proc Natl. Acad. Sci. U.S.A. 2008, 105, 19881). 5-LO mediated product formation (LTB4 and all trans isomers, and 5 (S)-hydro(pero)xy-6-trans-8, 11, 14-cis-eicosatetraenoic acid, 5-H(p)ETE) is expressed as ng per 10^6 cell. Cysteinyl-LTs have not been analyzed because that the amount of C4, D4 and E4 and LTB4 oxidation products are below the detection limit.
Compounds were tested in intact human neutrophils stimulated with 2.5 µM A23187 under cell based conditions and on purified 5-LO under cell free conditions. ^aData are given as remaining activity as a percentage of control (100%) at 10 µM or 1 µM inhibitor concentrations (means ± SE, n = 3-6).
9hj was added 15 min before addition of 2 mM Ca^2+ plus 3 µM, 10 µM and 30 µM AA. 100% controls correspond to 200.35 ng mL^-1 for 3 µM AA, 514.36 ng mL^-1 for 10 µM AA and 537.73 ng mL^-1 for 30 µM AA.

[1] = tested on: 5-LO mediated product synthesis; test: 5-LO mediated product synthesis in monocytes stimulated with LPS plus fMLP; type: cell-based; details: Homo sapiens, Monocyte

Compound: O=C(O)c1noc(-c2ccc(OCc3ccc4ccccc4n3)cc2)c1-c1ccc(Cl)cc1 [Compound 9hj, 4-(4-Chlorophenyl)-5-(4-(quinolin-2-ylmethoxy)phenyl)isoxazole-3-carboxylic acid]
- IC50 (5-LO): 1 µM
- inhibition of 15-LO (15-LO): did not inhibit
- IC50 (purified 5-LO; human recombinant 5-LO, at 3, 10 and 30 µM substrate AA (Figure 5), read-out: mean IC50 activity of isolated 5-LO): 2 µM
- IC50 (purified 5-LO; purified 5-LO under cell free conditions, mean ± SE, n = 3-4, read-out: Inhibition of purified 5-LO activity IC50 (µM) cell-free): 8 µM and 8.01 µM
- IC50 [1]: 0.008 µM
